In patent publication US10959979B2, “Small molecules against cancer” (Biokine Therapeutics Ltd., priority 2015, dated 2021):
Values after ≈ are worked out from the molar mass of the structure shown.

Assays:
SDF-1 = SDF-1 (Homo sapiens, UniProt P48061); assay: Migration of Jurkat cells towards SDF-1 (Transwell migration assay); format: cell-based; conditions: for Inhibition of migration of lymphocytic Jurkat cells towards SDF-1: 10 μg/ml
Method: (§1) 600 μl of RPMI medium was added to the lower chambers of Transwell® transmigration plates, supplemented with 2 μg/ml of MIP3a, 100 ng/ml of SDF-1 or 10 ng/ml of MCP-1. The tested small molecule was added to the lower chambers at the indicated concentration, except in control samples. The MIP3a, SDF-1 or MCP-1 was incubated with the small molecule for 30 minutes at room temperature before the initiation of the migration assay. Following 30 minutes of incubation 2×10^5 immune cells were added to the upper chambers of the transmigration plates in a total volume of 100 μl. Cells which migrated within 3 hours to the bottom chamber of the Transwell® plates were counted using a FACScalibur™ flow cytometer.
To evaluate migration towards SDF-1, Jurkat cells were re-suspended in RPMI medium containing 1% fetal calf serum (FCS).

440 kinases = assay: LanthaScreen europium kinase binding assay, screen of 440 kinases; parameters: species or system human
Method: (§2) In order to further characterize the effect of BKT300 on cell signaling, kinase profiling of BKT300 (at 78% purity) was performed (by the Life Technologies SelectScreen® Biochemical Profiling Lab) using a LanthaScreen® europium kinase binding assay to screen 440 kinases.
(§3) The principle of the LanthaScreen® assay is depicted in FIG. 48. Binding of an Alexa Fluor® conjugate or “tracer” to a kinase is detected by addition of a europium (Eu)-labeled anti-tag antibody. Binding of the tracer and antibody to a kinase results in a high degree of FRET, whereas displacement of the tracer with a kinase inhibitor results in a loss of FRET. The kinase tracers are based on ATP-competitive kinase inhibitors, making them suitable for detection of any compounds that bind to the ATP site. Inhibitors that bind the ATP site include both Type I kinase inhibitors, which bind solely to the ATP site, and Type II inhibitors (e.g., imatinib, sorafenib, BIRB-796), which bind to both the ATP site and a second site often referred to as the allosteric site.

MV4-11 (FLT3-ITD) cells = assay: AML cells in vivo: NSG mice transplanted with MV4-11 cells; parameters: species or system NOD scid gamma (NSG) mice; conditions: BKT300 at 98% purity; 1 mg/Kg intraperitoneally for three consecutive days from day 21; day 25; anti human CD45
Method: The effect of BKT300 (at 98% purity) on the proliferation of AML cells in vivo was examined by treatment of NOD scid gamma (NSG) mice transplanted with MV4-11 (FLT3-ITD) cells.
The mice were subjected to irradiation with 300 rad and on the following day were transplanted by IV injection with MV4-11 (FLT3-ITD) cells, 10×10^6 cells/mouse. 21 days following transplantation, the treated group was injected intraperitoneally with 1 mg/Kg of BKT300 (98% purity) per injection for three consecutive days. On day 25 following transplantation, mice were sacrificed and the survival of the human AML blasts in the blood, spleen and the bone marrow was evaluated using anti human CD45.

MCP-1 = MCP-1 (Homo sapiens, UniProt P13500); assay: Migration of THP-1 cells towards MCP-1 (Transwell migration assay); format: cell-based; conditions: BKT300 at 78% purity
MCP-1, sequence (P13500 24-99): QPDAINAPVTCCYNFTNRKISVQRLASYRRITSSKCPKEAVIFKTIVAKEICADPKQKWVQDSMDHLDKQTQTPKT
Method: as §1
To evaluate migration towards MCP-1, THP-1 cells were re-suspended in RPMI medium containing 1% fetal calf serum (FCS).

MLCK (MLCK2) = target: T1, MLCK (MLCK2) (Homo sapiens, UniProt Q32MK0); assay: LanthaScreen europium kinase binding assay; conditions: BKT300 at 78% purity
T1 sequence (Q32MK0 1-819): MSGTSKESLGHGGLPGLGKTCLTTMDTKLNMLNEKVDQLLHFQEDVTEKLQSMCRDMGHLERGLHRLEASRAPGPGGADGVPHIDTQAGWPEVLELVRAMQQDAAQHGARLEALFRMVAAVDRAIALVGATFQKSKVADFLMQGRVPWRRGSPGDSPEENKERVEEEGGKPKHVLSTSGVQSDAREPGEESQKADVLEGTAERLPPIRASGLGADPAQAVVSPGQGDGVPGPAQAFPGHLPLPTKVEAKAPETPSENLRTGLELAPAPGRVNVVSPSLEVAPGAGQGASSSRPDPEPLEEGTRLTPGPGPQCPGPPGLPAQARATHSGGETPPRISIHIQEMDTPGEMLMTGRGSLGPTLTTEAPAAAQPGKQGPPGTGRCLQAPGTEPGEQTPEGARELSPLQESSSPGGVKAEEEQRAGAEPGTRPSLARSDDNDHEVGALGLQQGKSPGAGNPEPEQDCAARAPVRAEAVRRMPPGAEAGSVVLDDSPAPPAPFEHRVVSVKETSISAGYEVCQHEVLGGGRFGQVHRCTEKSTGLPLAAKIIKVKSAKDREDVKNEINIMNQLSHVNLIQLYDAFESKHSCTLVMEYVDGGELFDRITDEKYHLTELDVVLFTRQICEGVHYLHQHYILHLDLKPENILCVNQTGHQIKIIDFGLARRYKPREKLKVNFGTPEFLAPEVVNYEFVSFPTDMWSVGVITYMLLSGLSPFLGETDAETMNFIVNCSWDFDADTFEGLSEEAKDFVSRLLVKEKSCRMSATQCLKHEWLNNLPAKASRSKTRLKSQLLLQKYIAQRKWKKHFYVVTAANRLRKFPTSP
Method: as §2, §3

[1] = tested on: MV4-11 human acute myeloid leukemia cells; assay: Cancer cell viability, FACS with propidium iodide staining; format: cell-based
Method: (§4) In order to assess the effect of compounds of Table 2 on cancer cell viability, the in vitro effect of the compounds on MV4-11 human acute myeloid leukemia cells was evaluated. The cancer cells were incubated in RPMI cell medium with 1% fetal calf serum (FCS) at a concentration of 2×10^5 cells/well at a final volume of 250 μl in 96-well plate. The compounds were added to the cells at the indicated concentrations. The cells were incubated for 24 hours and the number of dead and viable cells was then evaluated by fluorescence-activated cell sorting (FACS), using propidium iodide (PI) staining.

MIP3a = MIP3a (Homo sapiens, UniProt P78556); assay: Migration of CD4+ T-cells toward MIP3a (Transwell migration assay); format: cell-based; conditions: 50 μg/ml; BKT300 at 78% purity
MIP3a, sequence (P78556 27-96): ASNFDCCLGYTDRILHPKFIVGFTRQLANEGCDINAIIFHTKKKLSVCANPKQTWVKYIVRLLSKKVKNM
Method: as §1
To evaluate migration toward MIP3a, peripheral blood mononuclear cells (PBMCs) were isolated from heparinized venous blood by centrifugation over Ficoll Histopaque® 1077. CD4+ T cells were further isolated with RosetteSep™ human CD4+ T-cell Enrichment cocktail (StemCell Technologies Inc.), according to the manufacturer's instructions. CD4+ T cells were re-suspended in RPMI medium containing 1% fetal calf serum (FCS).

[2] = tested on: Bjab human lymphoma cells; assay: Cancer cell viability, FACS with propidium iodide staining; format: cell-based; conditions: 8.5 μg/ml; BKT300 at 78% purity
Method: as §4
(§5) The in vitro effect of BKT300 (at 78% purity) on cancer cell viability was further evaluated using a variety of additional cancer cell lines, using procedures as described hereinabove with respect to MV4-11 cells.

[3] = tested on: H345 human small cell lung cancer cells; assay: as above; format: cell-based; conditions: 8.5 μg/ml; BKT300 at 78% purity
Method: as §4, §5

[4] = tested on: RPMI human multiple myeloma cells; assay: as above; format: cell-based; conditions: BKT300 at 78% purity; concentrations as low as 2 μg/ml (the lowest tested concentration)
Method: as §4, §5

[5] = tested on: Raji human lymphoma cells; assay: as above; format: cell-based; conditions: BKT300 at 78% purity
Method: as §4, §5

[6] = tested on: Jurkat human acute lymphoblastic leukemia cells; assay: as above; format: cell-based; conditions: BKT300 at 78% purity
Method: as §4, §5

[7] = tested on: H460 human large cell lung cancer cells; assay: as above; format: cell-based; conditions: 10 μg/ml; BKT300 at 78% purity
Method: as §4, §5

SDF-1, sequence (P48061 22-93): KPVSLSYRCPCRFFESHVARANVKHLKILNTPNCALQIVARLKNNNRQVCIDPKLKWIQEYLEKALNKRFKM

Compound: CCCCCc1cc2cc(O)cc(Oc3c(O)cc(O)cc3CCCCC)c2c(=O)o1 [BKT300]
- Inhibition of migration of lymphocytic Jurkat cells towards SDF-1 (SDF-1; BKT300 at 78% purity): significantly inhibited
- Inhibition of migration of lymphocytic Jurkat cells towards SDF-1 (SDF-1; BKT300 at 98% purity): significantly inhibited
- Selectivity of inhibition of SDF-1 function over MCP-1 and/or MIP3a function (SDF-1; at a concentration of about 10 μg/ml): relatively selective manner
- Inhibition of 36 of the 440 screened kinases (440 kinases; BKT300 at 78% purity): more than 40%
- Affinity of BKT300 to kinases, based on the kinase screening assay (440 kinases; estimated from Table 3): few tens
- Number and percentage of AML cells in the bone marrow of mice (MV4-11 (FLT3-ITD) cells): dramatically reduced
- Inhibition of migration of monocytic THP-1 cells towards MCP-1 (MCP-1; 10 μg/ml): no apparent effect
- Inhibition of migration of monocytic THP-1 cells towards MCP-1 (MCP-1; 50 μg/ml): strong inhibition
- % Inhibition (MLCK (MLCK2)): 58%
- Degree of cell death of MV4-11 cells, 98% purity compared with 78% purity ([1]; 4.25 μg/ml, BKT300 at 98% purity vs 78% purity): considerably greater degree of cell death
- Cell death of MV4-11 cells ([1]; BKT300 at 78% purity, concentrations as low as 2 μg/ml (the lowest tested concentration), 24 hours): induced cell death
- Induction of cell death of MV4-11 cells, 98% purity compared with 78% purity ([1]; BKT300 at 98% purity vs BKT300 at 78% purity): significantly more effective
- IC50 ([1]; Homo sapiens, MV4-11, BKT300 at 78% purity, 24 hours, read-out: IC50 for induced death of MV4-11 cells): 2.72 µg/mL (≈ 6.38 µM)
- Inhibition of CD4+ T-cell migration towards MIP3a (MIP3a): completely inhibited
- Cell death of Bjab cells [2]: about 30%
- Cell death of H345 cells [3]: over 90%
- Cell death of RPMI cells [4]: induced cell death
- Cell death of Raji cells ([5]; 4.25 μg/ml): slight cell death
- Cell death of Raji cells ([5]; 8.5 μg/ml): about 30%
- Cell death of Jurkat cells ([6]; concentrations as low as 2 μg/ml (the lowest tested concentration)): induced cell death
- IC50 ([6]; Homo sapiens, Jurkat, read-out: IC50 for BKT300-induced death of Jurkat cells): 3.5 µg/mL (≈ 8.21 µM)
- Cell death of H460 cells [7]: about 80%
